The text below walks through data of US20250188078A1, “SMALL MOLECULE INHIBITORS OF THE CRL4 UBIQUITIN LIGASE” (Cornell University, priority 2022, published 2025).

The target of test [1] is CUL4A-DDB1-BPB interaction (Homo sapiens (Human), UniProt Q16531). The test can be described thus: AlphaLISA in vitro binding assay, CUL4A and DDB1-BPB binding. The settings on record: inhibition of CUL4A and DDB1-BPB binding. The text has this: AlphaLISA IC50 (see Table 1, column 4) means the half maximal inhibitory concentration of compound that inhibits CUL4A and DDB1-BPB binding. Our lab established and optimized 384 well-based AlphaLISA in vitro binding assay for testing small molecule inhibitory activity. Small molecule libraries were screened for compounds that disrupt CUL4A-DDB1-BPB interaction using AlphaScreen detection beads (PerkinElmer, #AL112C and #6765300) following the manufacturer's protocol (https://www.perkinelmer.com/PDFs/downloads/GDE-Alphatech.pdf, hereby incorporated by reference in its entirety for all purposes). The 384-well assay plates (Greiner Bio-one, #781075) were read in Synergy Neo2 Hybrid Multi-Mode Reader (BioTek). The IC50 was calculated by Prism 8 XY analysis nonlinear regression (curve fit-Log(inhibitor) vs response).
Chain of CUL4A-DDB1-BPB interaction (Q16531 403-706): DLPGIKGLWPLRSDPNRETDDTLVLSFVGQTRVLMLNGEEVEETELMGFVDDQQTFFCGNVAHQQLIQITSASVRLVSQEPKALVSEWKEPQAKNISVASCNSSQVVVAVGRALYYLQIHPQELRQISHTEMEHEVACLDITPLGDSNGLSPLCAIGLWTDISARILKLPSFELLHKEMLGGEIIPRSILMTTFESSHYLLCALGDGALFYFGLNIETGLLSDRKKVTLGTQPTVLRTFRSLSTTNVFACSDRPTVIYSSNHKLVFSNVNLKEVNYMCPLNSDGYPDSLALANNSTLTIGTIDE

Test [2] has as its system CUL4A^high MDA-MB-468 breast cancer cells. Briefly: Cell killing in CUL4-high MDA-MB-468 cells (CellTiter Glo). The conditions noted are these: Homo sapiens, 192 h; MDA-MB-468 cells, 8 days treatment; read-out: EC50 CUL4-High Cells (cell killing). The class given is cell-based. On the procedure:
EC50 refers to concentration of compound that induces 50% killing of CUL4A^high MDA-MB-468 cells (see Table 1, column 6). CUL4A^high MDA-MB-468 breast cancer cells were seeded in 96 well plates. After 24 hours, cells were treated with DMSO or compounds. Change fresh medium and compounds. After 8 days treatment, cell viability was examined by using CellTiter Glo kit (Promega #7570) following the manufacturer's guidelines (https://www.promega.com/-/media/files/resources/protocols/technicalbulletins/0/celltiter-glo-luminescent-cell-viability-assay protocol.pdf?rev=0d95c232094b41daa06d0c110d1d916f&sc_lang=en, hereby incorporated by reference in its entirety for all purposes). EC50 concentration was calculated by Prism 8 XY analysis nonlinear regression (curve fit-Log(inhibitor) vs response). Lower EC50 indicates high cell killing potential in CUL4^high MDA-MB-468 cells.
CUL4A^high MDA-MB-468, CUL4^low (T47D), and MCF7 breast cancer cells were seeded in 96 well plates separately. Cells were treated with DMSO, or from 0 to 20 μM compound respectively. Replace with fresh medium and compounds every 48 hours. After 8 days treatment, cell viability was examined by CellTiter Glo kit (Promega #7570). First, transfer the appropriate volume (10 ml for Cat. #G7570) of CellTiter-Glo® Buffer into the amber bottle containing CellTiter-Glo® Substrate to reconstitute the lyophilized enzyme/substrate mixture. This forms the CellTiter-Glo® Reagent. Second, add CellTiter-Glo® Reagent in an equal volume (100 μl per well for 96-well plates) to all wells. Mix contents for 2 minutes on an orbital shaker to induce cell lysis. Incubate at room temperature for 15 minutes to stabilize luminescent signal. Then record luminescence. EC50 concentration was calculated by Prism 8 XY analysis nonlinear regression (curve fit-Log(inhibitor) vs response).
Background: In ATP-based viability assays light output follows the ATP content of the culture.

The test system of test [3] is UV-induced CUL4-dependent DDB2 degradation in MEF-F-DDB2 cells. The test can be described thus: Cell-based assay for inhibition of UV-induced CUL4-dependent DDB2 degradation. Also on record: key: (+) means that the normalized DDB2/α-tubulin ratio is higher in the compound treated sample than DMSO treated sample; (−) means that no change happens between compound treated sample with control sample. The conditions noted are these: DDB2/α-tubulin by Western blot. On the procedure: Cell-based assay for inhibition of UV-induced CUL4-dependent DDB2 degradation by small molecule CUL4 inhibitors (see Table 1, column 5). Briefly, MEF-F-DDB2 cells were seeded in 6-well plates. DMSO or indicated concentrations of compounds were added to MEF-F-DDB2 cells growing in serum-free medium. MEF-F-DDB2 cells were washed once with PBS and subsequently irradiated with a Philips TUV lamp (predominantly 254 nm) at a dose rate of 0.2 W/m^2. DMSO or compounds were added to MEF-F-DDB2 cells, and then cells were harvested. The cells were lysed, and equal amounts of proteins were resolved on SDS-PAGE gel and Flag-DDB2 levels were detected using anti-DDB2 (D4C4) rabbit antibody (Cell signaling, #5416S). α-tubulin (Proteintech, #66031-1-Ig) was used as an internal loading control. (+) means that the normalized DDB2/α-tubulin ratio is higher in the compound treated sample than DMSO treated sample. (−) means that no change happens between compound treated sample with control sample.
On the technique in general: Immunoblotting shows a protein as a band on a membrane.

Some results are limits rather than exact numbers.

The term IC50 denotes the concentration that gives 50% inhibition. Broadly, the EC50 is the concentration at which the effect is half-maximal.

Turning to `Cc1c(/C(=N\CC(=O)O)c2ccc3[nH]ncc3c2)[nH]c2ccccc12` [PA29], the IC50 in test [1] is 3.79 ± 1.02 µM.
In the case of `O=[N+]([O-])c1ccc(-c2nc(Br)cc3c2[nH]c2ccc(Br)cc23)cc1` [PA30, 3,6-dibromo-1-(4-nitrophenyl)-9H-pyrido[3,4-b]indole], in test [1], the “AlphaLisa IC50” value was “Neg”.
For the molecule `O=C(O)c1cc2c([nH]c3ccccc32)c(-c2ccc(CO)cc2)n1` [PA21], the IC50 in test [1] came out at 3.4 ± 0.88 µM.
As to `O=C(O)c1cc2c([nH]c3cc(F)ccc32)c(-c2ccc(OCCc3ccccc3)cc2)n1` [PA1-11B, 7-fluoro-1-(4-phenethoxyphenyl)-9H-pyrido[3,4-b]indole-3-carboxylic acid], the EC50 in test [2] amounted to 15.2 µM. Also, the “Degradation Inhibition (inhibition of UV-induced DDB2 degradation)” value (“Degradation Inhibition” below) in test [3] is recorded as “−”.
The like results for `O=C(O)c1cc2c([nH]c3cc(F)ccc32)c(-c2ccc(OCc3ccncc3)cc2)n1` [PA1-11F, 7-fluoro-1-(4-(pyridin-4-ylmethoxy)phenyl)-9H-pyrido[3,4-b]indole-3-carboxylic acid] were, in that order, more than 20 µM and “−”.
As to `Cc1ccc(-c2ccc(-c3nc(C(=O)O)cc4c3[nH]c3ccccc34)cc2)cc1` [PA59], the IC50 in test [1] came out at 25 ± 12.5 µM.
Same read-out and setting: in the case of `N#Cc1cccc(-c2nc(C(=O)O)cc3c2[nH]c2ccccc23)c1` [PA23] it was 2.38 ± 0.9 µM.
Same read-out and setting: under `O=C(O)c1cc2c([nH]c3ccccc32)c(-c2ccc(-c3ccc(F)cc3)cc2)n1` [PA58] stands 5.5 ± 1.89 µM; under `CS(=O)(=O)c1ccc(-c2ccc(-c3nc(C(=O)O)cc4c3[nH]c3ccccc34)cc2)cc1` [PA61], 3.86 ± 0.59 µM.
As for `NS(=O)(=O)c1cc2c([nH]c3ccc(Cl)cc32)c(-c2ccc([N+](=O)[O-])cc2)n1` [PA41, 6-chloro-1-(4-nitrophenyl)-9H-pyrido[3,4-b]indole-3-sulfonamide], the “AlphaLisa IC50” value in test [1] was “Neg”.
`O=C(O)c1cc2c([nH]c3ccccc32)c(-c2cccnc2)n1` [PA25]: the IC50 in test [1] is 2.52 ± 0.54 µM. Further, the “Degradation Inhibition” value in test [3] is on record as “+”.
In the case of `CN(c1ccc(-c2nc(C(=O)O)cc3c2[nH]c2cc(F)cc(F)c23)cc1)S(=O)(=O)c1ccccc1` [PA1-5, 5,7-difluoro-1-(4-(N-methylphenylsulfonamido)phenyl)-9H-pyrido[3,4-b]indole-3-carboxylic acid], the EC50 in test [2] came out at 10.7 µM. Also, in test [1], the IC50 amounted to 0.22 µM.
For the molecule `NS(=O)(=O)c1ccc(-c2nc(C(=O)O)cc3c2[nH]c2ccccc23)cc1` [PA49, 1-(4-sulfamoylphenyl)-9H-pyrido[3,4-b]indole-3-carboxylic acid], the IC50 in test [1] was determined as 0.96 ± 0.096 µM.
Turning to `CS(=O)(=O)Nc1cc2c([nH]c3ccccc32)c(-c2ccc([N+](=O)[O-])cc2)n1` [PA38, N-[1-(4-nitrophenyl)-9H-pyrido[3,4-b]indol-3-yl]methanesulfonamide], in test [1], the “AlphaLisa IC50” value is “Neg”.
Regarding `COC(=O)c1cccc(-c2nc(C(=O)O)cc3c2[nH]c2ccccc23)c1` [PA24, 1-(3-methoxycarbonylphenyl)-9HPage pyrido[3,4-b]indole-3-carboxylic acid], the IC50 in test [1] was found to be 12 µM. Besides, the “Degradation Inhibition” value in test [3] was “+”.
With `CCS(=O)(=O)c1ccc(-c2nc(C(=O)O)cc3c2[nH]c2ccccc23)cc1` [PA45, 1-(4-ethylsulfonylphenyl)-9Hpyrido[3,4-b]indole-3-carboxylic acid], the IC50 in test [1] turned out to be 0.94 ± 0.24 µM.
Still for that read-out and setting: under `O=C(O)c1cc2c([nH]c3ccccc32)c(-c2ccc(C#Cc3ccccc3)cc2)n1` [PA62] stands 36.5 ± 9.9 µM; under `Cn1c2ccccc2c2cc(C(=O)O)nc(-c3ccc([N+](=O)[O-])cc3)c21` [PA14, 9-methyl-1-(4-nitrophenyl)pyrido[3,4-b]indole-3-carboxylic acid], 32.2 ± 7.89 µM; under `CS(=O)(=O)c1ccc(-c2nc(C(=O)O)nc3c2[nH]c2ccccc23)cc1` [PA70, 4-(4-methylsulfonylphenyl)-5H-pyrimido[5,4-b]indole-2-carboxylic acid], 9.04 ± 0.89 µM.
The same measure, in the same setting: in the case of `CN1C=C(c2nc(C(=O)O)cc3c2[nH]c2ccccc23)C=NC1` [PA26] it was 4.81 ± 0.96 µM; in that of `O=C(O)c1cc2c([nH]c3ccccc32)c(-c2ncc[nH]2)n1` [PA27], 23.1 ± 4.02 µM.
Still for that read-out and setting: in the case of `O=C(O)c1cc2c([nH]c3ccccc32)c(-c2cccc(Cl)c2)n1` [PA6] it was 3.97 ± 0.79 µM; in that of `CN(C)S(=O)(=O)c1ccc(-c2nc(C(=O)O)cc3c2[nH]c2ccccc23)cc1` [PA50, 1-[4-(dimethylsulfamoyl)phenyl]-9H-pyrido[3,4-b]indole-3-carboxylic acid], 0.81 ± 0.21 µM.
As to `O=C(O)c1cc2c([nH]c3cc(F)ccc32)c(-c2ccc(OCc3ccoc3)cc2)n1` [PA1-11J, 7-fluoro-1-(4-(furan-3-ylmethoxy)phenyl)-9H-pyrido[3,4-b]indole-3-carboxylic acid], the “Degradation Inhibition” value in test [3] is recorded as “−”.
With `O=C(O)c1cc2c([nH]c3ccccc32)c(-c2ccc(NS(=O)(=O)c3ccccc3)cc2)n1` [PA77, 1-[4-(benzenesulfonamido)phenyl]-9H-pyrido[3,4-b]indole-3-carboxylic acid], the IC50 in test [1] was found to be 1.52 ± 0.19 µM.
Turning to `O=C(O)c1cc2c([nH]c3cc(F)ccc32)c(-c2ccc(OCn3cncn3)cc2)n1` [PA1-11M, 1-(4-((1H-1,2,4-triazol-1-yl)methoxy)phenyl)-7-fluoro-9H-pyrido[3,4-b]indole-3-carboxylic acid], the “Degradation Inhibition” value in test [3] is reported as “−”.
`O=C(O)c1cc2c([nH]c3ccccc32)c(-c2cccc([N+](=O)[O-])c2)n1` [PA36]: the IC50 in test [1] stood at 7.1 ± 0.61 µM.
Consider `COc1ccc(-c2ccc(-c3nc(C(=O)O)cc4c3[nH]c3ccccc34)cc2)cc1` [PA60], for which the IC50 in test [1] came to 17.5 ± 6.39 µM. In addition, the “Degradation Inhibition” value in test [3] is on record as “−”.
`O=C(O)c1cc2c([nH]c3ccccc32)c(-c2cccc(O)c2)n1` [PA22]: in test [1], the IC50 came out at 14.7 ± 3.25 µM.
`CN(c1ccc(-c2nc(C(=O)O)cc3c2[nH]c2cc(Cl)ccc23)cc1)S(=O)(=O)c1ccccc1` [PA1-6, 1-[4-[benzenesulfonyl(methyl)amino]phenyl]-7-chloro-9H-pyrido[3,4-b]indole-3-carboxylic acid]: in test [2], the EC50 is 7.89 µM. Further, the IC50 in test [1] was determined as 1.13 µM.
With `Cc1cc(F)cc2[nH]c3c(-c4ccc(N(C)S(=O)(=O)c5ccccc5)cc4)nc(C(=O)O)cc3c12` [PA1-14, 7-fluoro-5-methyl-1-(4-(N-methylphenylsulfonamido)phenyl)-9H-pyrido[3,4-b]indole-3-carboxylic acid], the EC50 in test [2] is 7.36 µM. Besides, in test [1], the IC50 amounted to 0.139 µM.
`O=C(O)c1cc2c([nH]c3ccccc32)c(-c2ccc(F)c(F)c2)n1` [PA32]: the IC50 in test [1] came out at 3.54 ± 0.68 µM.
Turning to `O=C(O)c1cc2c([nH]c3cc(F)ccc32)c(-c2ccc(OCc3ccncn3)cc2)n1` [PA1-11L, 7-fluoro-1-(4-(pyrimidin-4-ylmethoxy)phenyl)-9H-pyrido[3,4-b]indole-3-carboxylic acid], the “Degradation Inhibition” value in test [3] is “−”.
`O=C(O)c1cc2c([nH]c3ccccc32)c(-c2ccc3[nH]ccc3c2)n1` [PA28, 1-(1H-indol-5-yl)-9H-pyrido[3,4-b]indole-3-carboxylic acid]: the IC50 in test [1] came to 34.8 ± 8.75 µM.
Same read-out and setting: in the case of `COCCOCC#Cc1ccc(-c2nc(C(=O)O)cc3c2[nH]c2ccccc23)cc1` [PA63] it was 5.05 ± 0.2 µM.
